# From ChEMBL document CHEMBL1128798, “The in vitro cytotoxicity and DNA alkylating ability of the simplest functional analogues of the seco CC-1065 alkylating subunit” (Bioorg Med Chem Lett, 1995)
# Legend:
# CI80-13S cell line = assay: Tested in vitro for cytotoxicity against CI80-13S cell line in DNA cross-linking resistant human ovarian carcinoma; type: functional
# HeLa = assay: Tested in vitro for cytotoxicity against He La cell line in human cervical carcinoma; type: functional
# MM418 = assay: Tested in vitro for cytotoxicity against MM418c15a cell line in human melanoma with high melanin content; type: functional
# MM96L = assay: Tested in vitro for cytotoxicity against MM96L cell line in human melanoma; type: functional
# Nucleic Acid = assay: Compound was tested in vitro for DNA alkylation intensity; value is given as; type: functional
# B16 [1] = assay: Tested in vitro for cytotoxicity against B16 cell line in murine melanoma; type: functional, Mus musculus
# B16 [2] = assay: Tested in vitro for cytotoxicity against B16 cell line in murine melanoma activity expressed in IC50; type: functional, cell-based; conditions: Mus musculus
Compound,Cytotoxicity (CI80-13S cell line) [µM],Cytotoxicity (HeLa) [µM],Cytotoxicity (MM418) [µM],Cytotoxicity (MM96L) [µM],DNA alkylation (Nucleic Acid),Cytotoxicity (B16 [1]) [µM],IC50 (B16 [2]) [µM]
CS(C)(=O)=O [DIMETHYL SULFONE],59,35,58,56,,,
Oc1cccc(CCI)c1,,19,,20,,,
Oc1ccc(CCI)cc1,,33,,43,value is given as,,
COc1ccc(CCI)cc1,,22,,25,,,
Oc1ccc(CCCl)cc1,,32,,42,,,
Oc1cccc(CCBr)c1,,75,,60,,,
Oc1cccc(CCCl)c1,,450,,450,,,
OCCc1ccc(O)cc1 [TYROSOL],,1420,,905,,,
COc1ccc(CCO)cc1,,4420,,3330,,,
COc1ccc(CCBr)cc1,,220,,520,,,
OCCc1cccc(O)c1,,7530,,2530,,,
Oc1ccc(CCBr)cc1,27,18,25,16,value is given as,44,32
COc1ccc(CCCl)cc1,,670,,1970,,,
